According to US9352010B2, “Treatment of HIV-1 infection and AIDS” (The J. David Gladstone Institutes, priority 2011, dated 2016):

Experiments:
[1] = test system: HIV-1 reverse transcription products; assay: Taqman QPCR of HIV-1 reverse transcription products in infected CD4 T-cells; format: cell-based, human; settings: 16 hours after infection with NL4-3, versus untreated cells
Method: Fresh HLACs were washed once with PBS and resuspended with PBS containing 5 mM EDTA and 2% fetal bovine serum. CD4 T-cells were isolated from HLACs by positive selection on CD4 microbeads (Miltenyi) and cultured overnight in 96-well U-bottomed plates (1×10^6 cells/well) as described above, and AZT was added to the indicated cell samples. Next day, the rest of the drugs were added to the indicated cell samples at concentrations as described above. Cells were chilled on ice for 15 min and DNAse-treated (Ambion, 60 U/ml, 1 hour, 37° C.) NL4-3 or Δvif NL4-3 virions (200 ng/well) were added. After a 1 hour incubation with virions on ice, cells were spinoculated at 1200 g for 2 hours at 4° C., incubated at 37° C. for 2 hours, washed three times with cold PBS, and resuspended in fresh RPMI with the indicated drugs. Eight or 16 hours after spinoculation, cell pellets were frozen at −80° C. Total DNA was purified from each cell pellet with a DNAse kit (Qiagen). Primer and probe sequences used to detect reverse transcription products are provided herein. QPCR reactions were performed in triplicates in TaqMan universal PCR master mix using each primer at 3.75 μM and probe at 2.5 μM. After 15 minutes at 95° C., reactions underwent 50 cycles of 15 sec at 95° C. followed by 1 min at 60° C. in an ABI Prism 7900HT (Applied Biosystems).
Next the status of HIV-1 reverse transcription in tonsillar CD4 T-cells after infection was examined. […] Taqman-based quantitative real-time PCR (QPCR) was used to quantify the synthesis of reverse transcription products in isolated CD4 T-cells from HLAC 16 hours after infection with NL4-3. Specific QPCR primers and probes were designed (Table 1) to monitor sequential steps in reverse transcription including generation of strong-stop DNA, first template exchange (Nef), and DNA strand elongation (Env) (FIG. 10A)

[2] = test system: lactate dehydrogenase (LDH) release; assay: LDH release from HIV-1-infected HLACs (pyroptosis); format: cell-based, human; settings: caspase inhibitors 50 μM or 100 μM, 3 days, FIG. 16C
Method: Caspase-1 activation can lead to a highly inflammatory form of cell death called pyroptosis. To gain insight into how CD4 T cells die, it was determined whether HIV infection in CD4 T cells induce pyroptosis cell death, as measured by lactate dehydrogenase (LDH) release. HLACs were left uninfected or infected with NL4-3 in the presence of no drugs, efavirenz, AMD3100, or caspase inhibitors (50 μM or 100 μM), as indicated in FIG. 16C. After 3 days, the supernatants were assayed for the cytosolic enzyme lactate dehydrogenase (LDH) and the LDH released by dying cells was quantified.

[3] = test system: HIV-1; assay: microbe, parasite or virus in culture
Method: (A and C) Concentrations of T20 that block viral infection. […] One hour before incubation with the virus, cells were pretreated with T20 or left untreated. At 12 hours, cells were washed extensively and cultured under the same conditions. On day 9, the viral concentration was determined using a p24gag FLAQ assay. The amount of p24gag accumulated in the absence of drugs by each viral clone (A) or by SKY (C) was defined as 100%. (B and D) Effect of T20 on indirect killing. CFSE-labeled cells were co-cultured with cells infected with the indicated viral clones in the presence of 5 μM AZT and the indicated concentrations of T20. After 6 days, indirect killing in the mixed cultures was assessed. The number of viable CFSE-positive CD4 T-cells co-cultured with uninfected cells in the presence of AZT was defined as 100% (not shown). To allow successful initial infection the GIA-SKY mutants were pseudotyped with the VSV-G envelope. NL4-3, WT lab-adapted virus; WEAU 16-8, primary virus; SIM, T20-resistant virus; GIA-SKY, T20-dependent virus; GIA and SKY, single-domain mutant viruses. Representative data from three independent experiments with different donors are shown. See also FIG. 5, below.
HLACs were infected with viruses derived from the indicated HIV proviral clones in the presence of the indicated concentrations of AZT or in the absence of drugs. Six days after infection the amount of p24^gag in the medium was determined by FLAQ assay. The amount of p24^gag in the medium after infection wash (day 0) was defined as 0%. […] Viral incorporation of endogenous A3G was measured by immunoblot analysis of purified NL4-3 and Δvif NL4-3 virions harvested from 1 ml of supernatant from infected HLACs. Doses reflect 1:10 dilutions. […] Resting or activated CFSE-labeled cells were co-cultured with cells infected with WT or Δvif NL4-3 in the presence or absence of the following drugs, AZT (5 μM), AMD3100 (250 nM), the NNRTIs Efavirenz (100 nM), and Nevirapine (1 μM), or the integration inhibitors Raltegravir (30 μM) and 118-D-24 (60 μM). Data are representative of four independent experiments performed with cells from four different donors. (E) A method to assess indirect killing in HLAC with non-infectious HIV-1 clones. Fresh human tonsil is processed into HLAC and cells are cultured in suspension. At the same time 293T-cells are transfected with 1 μg HIV-1 DNA in a 24-well plate. After 12 hours, 293T-cells are washed and overlayed with 3×10^6 HLAC cells in RPMI in the presence of the indicated drugs. Virus-producing 293T-cells directly interact with target overlaying HLAC cells. After 24 hours, the HLAC suspensions are collected from wells and analyzed by flow cytometry. […] HLAC were cultured with the indicated drugs 3 hours before co-culture with 293T-cells. Percentages are normalized to the number of viable CD4 T-cells in HLAC overlaying non-transfected 293T-cells in the presence of AZT, as depicted by (*). Error bars represent standard error of the mean of three experiments performed using cells from three different HLAC donors.

[4] = test system: ISRE-GFP H35 cells; assay: ISRE-GFP H35 reporter cells; format: cell-based, rat; settings: AZT 5 μM, efavirenz 100 nM, raltegravir 30 μM
Method: Hepatocyte-derived reporter ISRE-GFP H35 cells were maintained as previously described (King et al., 2007, Lab Chip 7:77-85; Patel et al., 2009, Proc Natl Acad Sci USA 106:12867-12872). For microscopic imaging, ISRE-GFP reporter H35 cells were cultured on 35 mm glass bottom culture dishes (MatTeck) and were treated with AZT (5 μM), Efavirenz (100 nM), or Raltegravir (30 μM) 12 hours before infection. Cells were then infected with 2 μg/ml of replication competent VSV-G pseudotyped NL4-3. After 48 hours incubation at 37° C., cells were fixed in 2% paraformaldehyde at 25° C. for 1 hour, washed with PBS and stained with 10 μg/ml Hoechst 33342 (Invitrogen) and 1 μg/ml 7-AAD (eBioscience) for 15 min at 25° C. Cells were washed 3 times with PBS and were analyzed with an Axio observer Z1 microscope (Zeiss) equipped with an EC Plan NEOFLUAR 10×/0.3 PHM27 objective, filter sets 38HE, 45, and 49, and an Axiocam MRM REV 3.

**Q.** For c1cc(CN2CCCNCCNCCCNCC2)ccc1CN1CCCNCCNCCCNCC1 [AMD3100], which “reverse transcription products corresponding to strong-stop DNA” value [1] is on record?
**A.** greatly reduced

**Q.** And the “LDH release from HIV-1 infected cells” value [2]?
**A.** LDH was not released

**Q.** For Cc1cn([C@H]2C[C@H](N=[N+]=[N-])[C@@H](CO)O2)c(=O)[nH]c1=O [AZT], which IC50 ([3]; Human immunodeficiency virus 1, in Homo sapiens, read-out: concentration achieving half maximal inhibitory effect) is on record?
**A.** 0.5 µM

**Q.** And the “concentration that blocks viral replication” value ([3]; NL4-3-infected and AZT-sensitive clones)?
**A.** 0.5 µM

**Q.** And the “reverse transcription products corresponding to strong-stop DNA” value [1]?
**A.** similar

**Q.** And the “GFP expression and cell death induced by VSV-G pseudotyped HIV-1 virions” value [4]?
**A.** induced GFP expression and cell death in the presence or absence of AZT

**Q.** Which results are given for O=C1Nc2ccc(Cl)cc2[C@@](C#CC2CC2)(C(F)(F)F)O1 [efavirenz]?
**A.** GFP expression and cell death induced by VSV-G pseudotyped HIV-1 virions [4]: blocked; LDH release from HIV-1 infected cells [2]: LDH was not released

**Q.** For enfuvirtide, which “concentration at which inhibition of infection begins” value [3] is on record?
**A.** > 2 µg/mL

**Q.** And the “concentration giving complete inhibition of infection” value [3]?
**A.** 0.1 µg/mL

**Q.** What about the “concentration required for complete inhibition of infection” value [3] of the same compound?
**A.** 10 µg/mL

**Q.** And the inhibition of infection [3]?
**A.** did not inhibit infection

**Q.** And the “replication of T20-dependent mutant GIA-SKY” value [3]?
**A.** readily replicated
